Results taken from patent publication US20040038861A1, “Methods and compositions for normalizing lipid levels in mammalian tissues” (priority 2001, published 2004).

Key:
soleus muscle = assay: Glucose transport (2-deoxy-D-glucose uptake) in incubated soleus muscle strips; format: cell-based, rat
Procedure: Soleus muscle preparation. All experiments were performed according to protocols approved by the Institutional Animal Ethics Committee. 5-6 week-old male Wistar rats (160 g) were kept on a 12:12-h light/dark cycle, and fed and watered ad libitum. Animals were anaesthetised with 50 mg/kg Nembutal (pentobarbitone sodium), then sacrificed by cervical dislocation. Soleus muscles were dissected under oxygenated KHB (118 mM NaCl, 4.75 mM KCl, 1.2 mM MgSO4, 24.8 mM NaHCO3, 1.2 mM KH2PO4, 2.54 mM CaCl2, 10 mM glucose, pH 7.4) and teased into halves, then incubated as described below.
Determination of rates of glucose transport in incubated soleus muscle strips. 4-5 muscle strips were added to each flask, which contained 10 ml DMEM. They were pre-incubated with hormones as indicated for 30 min at 30° C. in a shaking water bath, after which 5 μl of 2[^3H]DOG (0.5 μCi/ml) and 5 μl D[^14C(U)]sorbitol (0.05 μCi/ml) were added, then incubated for another 30 min; RIA grade BSA was added to 0.9% (w/v) to prevent non-specific binding of insulin to flasks. Following incubation, muscle strips were transferred to ice-cold KHB for 5-10 min to remove excess [^3H]DOG and [^14C]sorbitol. They were then blotted, frozen, tendons excised, then lyophilized for a further 48 h. Muscles were then weighed, transferred to scintillation vials and digested with 0.5 ml 1 M NaOH at 60° C. for 1 h. Scintillation fluid (4 ml) was added to each vial, and samples counted in a Beckman liquid scintillation spectrometer, preset to count ^14C and ^3H channels simultaneously. The amount of each isotope present in the samples was determined and used to calculate the extracellular space and the intracellular concentration of [^3H]DOG. The accumulation of intracellular [^3H]DOG, a measure of muscle glucose uptake, was calculated by subtracting the concentration of [^3H]DOG in the extracellular space from the corresponding total muscle [^3H]DOG]; extracellular [^3H]DOG was quantified by measuring the muscle concentration of [^14C]sorbitol.
Data analysis. One way ANOVA, Dunnett's Multiple Comparisons Test, and unpaired Student's t-tests were used to calculate the statistical significance of differences, as appropriate. Dose-response curves were fitted to a sigmoidal dose-response algorithm, as follows: Y=minimum+(maximum−minimum)/([…] log ^(EC50^−X), for 2-DOG-uptake; and by a four parameter logistic model, Y=minimum+(maximum−minimum)/(1+10 log ^(EC50^−X)Hill-Coefficient) for total glycogen and [^14C]glucose incorporation. Calculations were performed using Prism v2.0 (GraphPad Software, San Diego, Calif.) to derive values for half-maximal effective concentration (EC50). Displacement curves derived for competition of bound radioligand with cold ligand in transfected cells were calculated according to a one site competition fit using Prism v2.0.

Wistar rats = assay: Tissue free fatty acid and triglyceride content following infusion in normal-fed rats; format: in vivo, rat
Procedure: Surgery. Experiments were performed on male Wistar rats. Animals were randomly assigned to experimental groups as outlined below. Induction and maintenance of surgical anesthesia was by 3-5% halothane and 2L oxygen. An initial blood sample was taken from a tail artery for measurement of baseline levels of blood glucose and lactate, electrolyte, acid base and oxygen status and serum levels of free fatty acids, triglyceride and cholesterol. Immediately following this, the trachea was cannulated and the animal ventilated at 60-70 breaths.min-1 with air supplemented with O2. The respiratory rate and end-tidal pressure (10-15 cmH2O) were adjusted to maintain end-tidal CO2 at 35-40 mmHg. Body temperature was maintained at 37° C. throughout surgery and the experiment by a heating pad. The carotid artery and jugular vein were cannulated with a solid-state blood pressure transducer and a saline filled PE 50 catheter respectively. For the antagonist infusion studies, surgery was similar to above with the alteration being that both the carotid artery and jugular vein were cannulated with saline filled PE 50 catheters. Fluids (saline or hormone dissolved in saline) were delivered to the jugular vein with a Y-connector to join the two lines. The carotid artery line was connected to a blood pressure transducer. Blood samples were taken from this line at time zero (baseline reading), 30 minutes and every 20 minutes until the end of the experiment at 90 minutes.
Infusion. […] Blood glucose measurements were taken from tail capillaries at 5-minute intervals throughout the duration of the experiment. At the end of the infusion a terminal blood sample was taken by cardiac puncture and analysed as per the basal sample and also for various metabolites and hormones. Serum and plasma samples were stored at −80° C. until future analysis. Animals were killed by cervical dislocation and harvested tissues (brain, liver, kidney, soleus muscle, extensor digitorum longus muscle, left ventricle, retroperitoneal and epididymal fat pads) snap frozen in liquid N2 and stored at −80° C. until future analysis. For the antagonist studies, the protocols was the same as above with the following changes: Infusion was a combination of antagonist, CGRP or saline.

## Rat amylin
Soleus muscle; amylin 10 nM, insulin 23.7 nM
  decrease of insulin-stimulated glucose uptake: 31%
Soleus muscle; amylin (10 nM) + insulin (23.7 nM)
  2-DOG-uptake, insulin-stimulated: 19.5±3.6 nmol/g dry-wt muscle/min
Soleus muscle; hormone alone (amylin 10 nM; insulin 23.7 nM), basal 8.8 ± 0.9
  2-DOG-uptake: 13.4 ± 2.4 nmol/g dry-wt muscle/min

## rat CGRP-1
Wistar rats; CGRP 100 pmol/kg/min 1 h, CGRP-(8-37) 10 nmol/kg/min 90 minutes, control 0.8 ± 0.2
  FFA content, Heart: 0.9 ± 0.1 µmol/g
Wistar rats; same infusions, control 0.1 ± 0.01
  FFA content, Liver: 0.7 ± 0.1 µmol/g
Wistar rats; same infusions, control 0.2 ± 0.02
  FFA content, Soleus Muscle: 0.6 ± 0.07 µmol/g
Wistar rats; same infusions, control 0.8 ± 0.1
  FFA content, Kidney: 0.9 ± 0.2 µmol/g
Wistar rats; same infusions, control 2.1 ± 0.5
  FFA content, Epi Adipose: 2.7 ± 0.7 µmol/g
Wistar rats; same infusions, control 2.8 ± 0.5
  triglyceride content, Kidney: 2.4 ± 0.4 µmol/g
Wistar rats; same infusions, control 2.9 ± 0.4
  triglyceride content, Heart: 2.6 ± 0.4 µmol/g
Wistar rats; same infusions, control 3.7 ± 0.4
  triglyceride content, Soleus Muscle: 1.5 ± 0.2 µmol/g
Wistar rats; same infusions, control 4.3 ± 0.3
  triglyceride content, Liver: 2.2 ± 0.5 µmol/g
Wistar rats; same infusions, control 5.1 ± 1.2
  triglyceride content, Epi Adipose: 5.0 ± 0.9 µmol/g
